US4016158A, “Cephalosporin derivatives” (Roussel-UCLAF, priority 1971, dated 1977)
Values after ≈ are worked out from the molar mass of the structure shown. Where two headings read alike, the source gives them in different places. Blank lines part the entries; values can stand above or below the compound they belong to.

Experiments:
solubility = format: physicochemical
Strept. Fecalis 5432 = test: MIC, diffusion method in gelose medium at pH 7 (Table I); format: cell-based
Method: (§1) The antibiotic activity was determined by the diffusion method in a gelose medium at a pH of 7. The following Table expresses the minimum concentration of inhibition in mcg/ml (CMl) for the products against different microbial strains.

Escher. Coli UC 1261 = test: as above; format: cell-based; conditions: Escherichia coli
Method: as §1

Escher. Coli UC 1020 = test: as above; format: cell-based; conditions: Escherichia coli
Method: as §1

Staph. U.C. 1128 P(-) = test: as above; format: cell-based; conditions: Staph. UC 1128, penicillin resistant, read-out: minimum concentration of inhibition
Method: as §1

[1] = tested on: Staph. aureus oxford U.C. 1061 P(+); test: as above; format: cell-based; conditions: Staphylococcus aureus
Method: as §1

Bac. Subt. = test: as above; format: cell-based
Method: as §1

[2] = tested on: Strept. hemoly. Todd Hewitt; test: as above; format: cell-based
Method: as §1

Pseudomonas = test: as above; format: cell-based; conditions: read-out: minimum concentration of inhibition
Method: as §1

[3] = tested on: Staphylococcus aureus 9373; test: MIC (Table II); format: cell-based; conditions: read-out: minimum inhibition concentration
Method: as §1
(§2) Using the same procedure as in Table I, the minimum inhibition concentration in mcg/ml was determined against different microbial strains with L(-) cis 7-[D(-)-α-aminophenylacetamido]-3-isopropyl-3-cepheme-4-carboxylic acid (product A) of Example 9.

[4] = tested on: Staphylococcus aureus 9482; test: MIC (Table II); format: cell-based; conditions: read-out: minimum inhibition concentration
Method: as §1, §2

[5] = tested on: Staphylococcus aureus 889; test: MIC (Table II); format: cell-based; conditions: read-out: minimum inhibition concentration
Method: as §1, §2

[6] = tested on: Staphylococcus aureus 4546; test: MIC (Table II); format: cell-based; conditions: read-out: minimum inhibition concentration
Method: as §1, §2

[7] = tested on: Staphylococcus aureus A8P; test: MIC (Table II); format: cell-based; conditions: read-out: minimum inhibition concentration
Method: as §1, §2

[8] = tested on: Staphylococcus aureus 9729; test: MIC (Table II); format: cell-based; conditions: read-out: minimum inhibition concentration
Method: as §1, §2

[9] = tested on: certain gram negative bacteria, particularly coliform bacteria; test: antibacterial activity, statement
[10] = tested on: gram positive bacteria such as staphylococci and streptococci; test: antibacterial activity, statement; conditions: particularly penicillin resistant staphylococci
[11] = Strept. Fecalis 5432, pH 7, read-out: minimum concentration of inhibition
[12] = UC1261, Escher. Coli UC 1261, pH 7, read-out: minimum concentration of inhibition
[13] = UC1020, Escher. Coli UC 1020, pH 7, read-out: minimum concentration of inhibition
[14] = UC1061, Staph. aureus oxford UC 1061, penicillin sensitive, pH 7, read-out: minimum concentration of inhibition
[15] = Bac. Subt., pH 7, read-out: minimum concentration of inhibition
[16] = Strept. hemoly. Todd Hewitt, pH 7, read-out: minimum concentration of inhibition
[17] = pH 7, read-out: minimum concentration of inhibition

Compound: CC(C)C1=C(C(=O)O)N2C(=O)[C@@H](NC(=O)Cc3ccc([N+](=O)[O-])cc3)[C@H]2SC1 (relative stereo) [Example 6, DL cis 7-p-nitrophenylacetamido-3-isopropyl-3-cepheme-4-carboxylic acid]
- solubility in ethanol (solubility): slightly soluble
- solubility in water (solubility): insoluble
- MIC (Strept. Fecalis 5432; [11]): > 40 µg/mL
- MIC (Escher. Coli UC 1261; [12]): > 200 µg/mL
- MIC (Escher. Coli UC 1020; [13]): > 200 µg/mL
- MIC (Staph. U.C. 1128 P(-)): 2 µg/mL (≈ 4.93 µM)
- MIC [1, 14]: 0.4 µg/mL (≈ 0.987 µM)
- MIC (Bac. Subt.; [15]): 0.2 µg/mL (≈ 0.493 µM)
- MIC [2, 16]: 5 µg/mL (≈ 12.3 µM)
- MIC (Pseudomonas): > 200 µg/mL

Compound: CC(C)C1=C(C(=O)O)N2C(=O)[C@@H](NC(=O)Cc3ccc(N)cc3)[C@H]2SC1 (relative stereo) [Example 7, DL cis 7-p-aminophenylacetamido-3-isopropyl-3-cepheme-4-carboxylic acid]
- solubility in chloroform (solubility; chloroform): slightly soluble
- solubility in ethanol (solubility): slightly soluble
- solubility in ether (solubility): insoluble
- solubility in water (solubility): slightly soluble
- MIC (Strept. Fecalis 5432; [11]): > 40 µg/mL
- MIC (Escher. Coli UC 1261; [12]): > 200 µg/mL
- MIC (Escher. Coli UC 1020; [13]): > 200 µg/mL
- MIC [1, 14]: 2 µg/mL (≈ 5.33 µM)
- MIC (Bac. Subt.; [15]): 0.05 µg/mL (≈ 0.133 µM)
- MIC [2, 16]: 10 µg/mL (≈ 26.6 µM)
- MIC (Pseudomonas): > 200 µg/mL

Compound: CC(C)C1=C(C(=O)O)N2C(=O)[C@@H](NC(=O)Cc3cccs3)[C@H]2SC1 (relative stereo) [Example 8, DL cis 7-(2'-thienyl)-acetamido-3-isopropyl-3-cepheme-4-carboxylic acid]
- solubility in ethanol (solubility): slightly soluble
- solubility in methanol (solubility; methanol): soluble
- solubility in water (solubility): insoluble
- MIC (Strept. Fecalis 5432; [11]): > 40 µg/mL
- MIC (Escher. Coli UC 1261; [12]): > 200 µg/mL
- MIC (Escher. Coli UC 1020; [13]): > 200 µg/mL
- MIC (Staph. U.C. 1128 P(-)): 5 µg/mL (≈ 13.6 µM)
- MIC [1, 14]: 2 µg/mL (≈ 5.46 µM)
- MIC (Bac. Subt.; [15]): 0.4 µg/mL (≈ 1.09 µM)
- MIC [2, 16]: 10 µg/mL (≈ 27.3 µM)
- MIC (Pseudomonas): > 200 µg/mL

Compound: CC1=C(C(=O)O)N2C(=O)[C@@H](NC(=O)[C@H](N)c3ccccc3)[C@H]2SC1 [Cephalexin, reference compound]
- MIC ([3]; Staphylococcus aureus, 9373, 24 h): 2 µg/mL (≈ 5.76 µM)
- MIC ([3]; Staphylococcus aureus, 9373, 48 h): 3 µg/mL (≈ 8.64 µM)
- MIC ([4]; Staphylococcus aureus, 9482, 24 h): 1 µg/mL (≈ 2.88 µM)
- MIC ([4]; Staphylococcus aureus, 9482, 48 h): 1 µg/mL (≈ 2.88 µM)
- MIC ([5]; Staphylococcus aureus, 889, 24 h): 5 µg/mL (≈ 14.4 µM)
- MIC ([5]; Staphylococcus aureus, 889, 48 h): 10 µg/mL (≈ 28.8 µM)
- MIC ([6]; Staphylococcus aureus, 4546, 24 h): 1 µg/mL (≈ 2.88 µM)
- MIC ([6]; Staphylococcus aureus, 4546, 48 h): 3 µg/mL (≈ 8.64 µM)
- MIC ([7]; 24 h): 2 µg/mL (≈ 5.76 µM)
- MIC ([7]; 48 h): 5 µg/mL (≈ 14.4 µM)
- MIC ([8]; Staphylococcus aureus, 9729, 24 h): 2 µg/mL (≈ 5.76 µM)
- MIC ([8]; Staphylococcus aureus, 9729, 48 h): 3 µg/mL (≈ 8.64 µM)
- MIC (Strept. Fecalis 5432; [17]): 60 µg/mL (≈ 173 µM)
- MIC (Escher. Coli UC 1261; UC1261, pH 7, read-out: minimum concentration of inhibition): 20 µg/mL (≈ 57.6 µM)
- MIC (Escher. Coli UC 1020; UC1020, pH 7, read-out: minimum concentration of inhibition): 20 µg/mL (≈ 57.6 µM)
- MIC (Staph. U.C. 1128 P(-)): 10 µg/mL (≈ 28.8 µM)
- MIC ([1]; UC1061, pH 7, read-out: minimum concentration of inhibition): 2 µg/mL (≈ 5.76 µM)
- MIC (Bac. Subt.; [17]): 0.2 µg/mL (≈ 0.576 µM)
- MIC [2, 17]: 10 µg/mL (≈ 28.8 µM)

Compound: N[C@@H](C(=O)N[C@@H]1C(=O)N2C(C(=O)O)=C(C3CCCC3)CS[C@H]12)c1ccccc1 [Example 10, L(+) 6R, 7R 7-[R(-)-α-aminophenylacetamido]-3-cyclopentyl-3-cepheme-4-carboxylicacid]
- solubility in ethanol (solubility): slightly soluble
- solubility in ether (solubility): insoluble
- solubility in water (solubility): slightly soluble
- activity against certain gram negative bacteria [9]: active
- activity against gram positive bacteria [10]: active
- MIC (Strept. Fecalis 5432; [11]): 20 µg/mL (≈ 49.8 µM)
- MIC (Staph. U.C. 1128 P(-)): 1 µg/mL (≈ 2.49 µM)
- MIC [1, 14]: 0.4 µg/mL (≈ 0.996 µM)
- MIC (Bac. Subt.; [15]): 0.05 µg/mL (≈ 0.125 µM)
- MIC [2, 16]: 10 µg/mL (≈ 24.9 µM)

Compound: O=C(Cc1ccc([N+](=O)[O-])cc1)NC1C(=O)N2C(C(=O)O)=C(C3CCCC3)CSC12 (stereo not drawn) [Example 11, DL cis 7-p-nitrophenylacetamido-3-cyclopentyl-3-cepheme-4-carboxylic acid]
- solubility in ethanol (solubility): slightly soluble
- solubility in ether (solubility): insoluble
- solubility in water (solubility): insoluble
- MIC (Strept. Fecalis 5432; [11]): > 40 µg/mL
- MIC (Staph. U.C. 1128 P(-)): 0.4 µg/mL (≈ 0.927 µM)
- MIC [1, 14]: 0.2 µg/mL (≈ 0.464 µM)
- MIC (Bac. Subt.; [15]): 0.1 µg/mL (≈ 0.232 µM)
- MIC [2, 16]: > 40 µg/mL

- solubility in ethanol (solubility): soluble
- solubility in ether (solubility): insoluble
- solubility in water (solubility): slightly soluble
Compound: Nc1ccc(CC(=O)NC2C(=O)N3C(C(=O)O)=C(C4CCCC4)CSC23)cc1 (stereo not drawn) [Example 12, DL cis 7-p-aminophenylacetamido-3-cyclopentyl-3-cepheme-4-carboxylic acid]

Compound: O=C(Cc1cccs1)NC1C(=O)N2C(C(=O)O)=C(C3CCCC3)CSC12 (stereo not drawn) [Example 13, DL cis 7-(2'-thienyl)-acetamido-3-cyclopentyl-3-cepheme-4-carboxylic acid]
- solubility in ether (solubility): insoluble
- solubility in water (solubility): slightly soluble
- MIC (Strept. Fecalis 5432; [11]): 20 µg/mL (≈ 51 µM)
- MIC [1, 14]: 1 µg/mL (≈ 2.55 µM)
- MIC (Bac. Subt.; [15]): 1 µg/mL (≈ 2.55 µM)
- MIC [2, 16]: > 40 µg/mL
